{
  "source": "paper PMC7288058",
  "about": "“Modulating the Properties of Fe(III) Macrocyclic MRI Contrast Agents by Appending Sulfonate or Hydroxyl Groups” (Molecules, 2020)",
  "key": {"[1]": {"conditions": "cited from earlier work; for relaxivity: 4.7 T printed for Fe(EDTA) only"}, "[2]": {"set-up": "method as in PMID 31725934", "conditions": "comparison complex, no titration described in this paper; cited from earlier work"}, "Balb/c mice [3]": {"system": "Balb/c mice", "set-up": "method as in PMID 31725934", "conditions": "cited from earlier work"}, "Balb/c mice [4]": {"system": "Balb/c mice", "assay": "Dynamic T1-weighted MRI in mice after tail vein injection (4.7 T)", "format": "in vivo", "conditions": "healthy mouse, 0.05 mmol/kg, kidneys/blood, up to 45 min", "text": "The two new Fe(III) complexes, Fe(L1)(OH2) and […], and the Gd(III) agent, Gd(DOTA), were studied in Balb/c mice on a small animal 4.7-T MRI scanner upon tail vein injection of the agent (Figure S24, Supplementary Materials). […] Biodistribution and pharmacokinetic clearance of the complexes in mice were monitored by using dynamic MRI.\nIn vivo imaging studies with the Fe(III) complexes were studied on at 4.7 T Bruker preclinical MRI in mice (BABC/cJ, Jackson Laboratory) in accordance with approved Institutional Animal Care and Use Committee (IACUC) protocols. The samples with a concentration of 0.050, 0.100, and 0.200 mmol [Fe]/kg. The Fe(III) complex stock solutions were adjusted to pH 7.2 by addition of meglumine and were injected intravenously via tail vein. MR data were recorded continuously for up to 1 h. Distribution studies and clearance kinetics were studied by using MR data acquired over several time points for up to 1 h, and additionally at 4 h and 24 h. For comparison, The Food and Drug Administration (FDA)-approved MRI contrast agent gadopentetate dimeglumine (Gd(DTPA), Magnevist®) and gadoterate meglumine (Gd(DOTA), Dotarem®) were injected at 50.0 μmol [Gd]/kg into separate group of mice and imaged as above."}, "[5]": {"set-up": "method as in PMID 31725934", "conditions": "100 mM HCl, cited from earlier work"}, "[6]": {"conditions": "'was reported', reference not given, cited from earlier work"}, "[7]": {"set-up": "method as in PMID 31725934", "conditions": "1-octanol/water; cited from earlier work"}, "[8]": {"target": "T1, human serum albumin (HSA) (Homo sapiens, UniProt P02768)", "T1 construct": "Albumin from human serum (fatty acid free) was purchased from Sigma-Aldrich; purchased Sigma-Aldrich; host or cells: purified from human serum", "T1 sequence (P02768 25-609)": "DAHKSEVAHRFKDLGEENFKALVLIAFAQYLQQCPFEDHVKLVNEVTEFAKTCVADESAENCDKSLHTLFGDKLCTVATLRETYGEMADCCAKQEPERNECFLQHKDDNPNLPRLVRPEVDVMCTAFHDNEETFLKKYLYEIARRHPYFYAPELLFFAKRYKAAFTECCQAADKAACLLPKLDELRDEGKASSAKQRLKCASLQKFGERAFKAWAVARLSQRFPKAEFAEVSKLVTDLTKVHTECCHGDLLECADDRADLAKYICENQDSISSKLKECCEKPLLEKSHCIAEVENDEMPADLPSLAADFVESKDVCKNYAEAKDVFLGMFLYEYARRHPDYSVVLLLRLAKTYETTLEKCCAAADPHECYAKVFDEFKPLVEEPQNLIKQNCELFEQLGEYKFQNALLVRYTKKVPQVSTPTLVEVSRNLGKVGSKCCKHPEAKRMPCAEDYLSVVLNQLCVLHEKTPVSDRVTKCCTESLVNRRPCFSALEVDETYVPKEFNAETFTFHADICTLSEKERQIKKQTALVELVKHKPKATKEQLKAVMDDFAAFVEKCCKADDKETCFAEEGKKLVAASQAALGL", "assay": "Binding to human serum albumin by ultrafiltration / ICP-MS", "format": "in vitro ADME", "conditions": "0.4 mM complex, HSA 4.5% (w/v) (0.7 mM), 20 mM HEPES pH 7.4, 100 mM NaCl, 37 °C, 20 min", "description": "Binding of the Fe(III) complexes to human serum albumin (HSA) was studied by using ultrafiltration across a MW 5000 cutoff membrane. The solutions containing HEPES buffer (pH 7.4) and salt NaCl were incubated at 37 °C for 20 min. Solutions contained 0.4 mM Fe(III) complex and 4.5 % (w/v) HSA (0.7 mM). The binding percentages were measured by using ICP-MS to analyze the Fe concentration in the unbound complex solutions after HSA incubation (Table 1). The protein binding for Fe(L3)(OH2) was higher (75%) than for Fe(L1)(OH2) (37%) or Fe(L2) (11%).\nThe molecular weight of 66,435 Da was used to determine the molar concentrations of HSA. Fe(III) complex (0.400 mM) solutions were incubated with 4.5% (w/v) HSA in 0.100 M NaCl and 20.0 mM HEPES buffer (pH 7.4). All solutions were incubated at 37 °C for 20 min [42]. Aliquots (0.300 mL) were placed in ultra-centrifugal filter units with a 5-kDa membrane and centrifuged at 3500× g for 10 min. The filtrates were used to determine Fe concentration from digested unbound Fe(III) complexes by using ICP-MS."}},
  "note": "Values joined by “and” are separate entries in the source; they are usually repeats but may differ in a detail not shown here. Equal values may be shown once. Read-outs that look alike come from different tables or passages of the source.",
  "data": [
    {"molecule": "O=C([O-])CN(CCN(CC(=O)[O-])CC(=O)[O-])CCN(CC(=O)[O-])CC(=O)[O-].[Fe+3]", "note": "[Fe(DTPA)]", "values": [
      {"measurement": "relaxivity", "setting": "[1]", "value": 0.51, "unit": "mM⁻¹ s⁻¹"}
    ]},
    {"molecule": "O=C([O-])CN(CCN(CC(=O)[O-])CC(=O)[O-])CC(=O)[O-].[Fe+3]", "note": "[Fe(EDTA)]", "values": [
      {"measurement": "relaxivity", "setting": "[1]", "value": 1.4, "unit": "mM⁻¹ s⁻¹"}
    ]},
    {"molecule": "C[C@H]([O-])CN1CCN(Cc2ccccc2)CCN(C[C@H](C)O)CC1.O.[Fe+3]", "note": "[Fe(L3)(OH2)]", "values": [
      {"measurement": "Log K1 (pKa2)", "setting": "[2]", "value": "7.17 ± 0.01"},
      {"measurement": "duration of enhanced kidney contrast", "setting": "Balb/c mice [3]", "value": "up to four hours"},
      {"measurement": "T1-weighted contrast enhancement compared with other agents", "setting": "Balb/c mice [4]", "value": "much stronger than that of Fe(L1)(OH2) or Gd(DOTA)"},
      {"measurement": "dissociation in acidic solution", "setting": "[5]; over 24 h", "value": 14, "unit": "%"},
      {"measurement": "dissociation in acidic solution", "setting": "[5]; over 72 h", "value": 38, "unit": "%"},
      {"measurement": "electrode potential (E1/2) vs. Ag/AgCl", "setting": "[6]; pH 3", "value": 112, "unit": "mV"},
      {"measurement": "electrode potential (E1/2) vs. NHE", "setting": "[6]; pH 3", "value": 400, "unit": "mV"},
      {"measurement": "electrode potential (E1/2) vs. Ag/AgCl", "setting": "[6]; pH 7", "value": "−588", "unit": "mV"},
      {"measurement": "electrode potential (E1/2) vs. NHE", "setting": "[6]; pH 7", "value": "−300", "unit": "mV"},
      {"measurement": "Log P", "setting": "[7]", "value": "−0.13"},
      {"measurement": "HSA Binding (%)", "setting": "[8]", "value": "75% and 75.1 ± 3.7%"},
      {"measurement": "r2 4.7 T", "setting": "[1]; 4.7 T", "value": "4.5 ± 1.1", "unit": "mM⁻¹ s⁻¹"},
      {"measurement": "r1 4.7 T", "setting": "[1]; buffer, pH 7.4, 37 °C, 4.7 T", "value": "2.2 mM⁻¹ s⁻¹ and 2.2 ± 0.30 mM⁻¹ s⁻¹"},
      {"measurement": "r1 in HSA 4.7 T", "setting": "[1]; in HSA, 4.7 T", "value": "2.5 ± 0.10", "unit": "mM⁻¹ s⁻¹"},
      {"measurement": "r2 in HSA 4.7 T", "setting": "[1]; in HSA, 4.7 T", "value": "4.2 ± 0.70", "unit": "mM⁻¹ s⁻¹"}
    ]},
    {"molecule": "CNC[C@H](O)[C@@H](O)[C@H](O)[C@H](O)CO.O=C([O-])CN1CCN(CC(=O)[O-])CCN(CC(=O)O)CCN(CC(=O)[O-])CC1.[Gd+3]", "note": "[Gd(DOTA), gadoterate meglumine]", "values": [
      {"measurement": "r1 4.7 T", "setting": "[1]; 4.7 T", "value": "2.8 ± 0.10", "unit": "mM⁻¹ s⁻¹"},
      {"measurement": "r2 4.7 T", "setting": "[1]; 4.7 T", "value": "3.7 ± 0.20", "unit": "mM⁻¹ s⁻¹"}
    ]},
    {"molecule": "CNC[C@H](O)[C@@H](O)[C@H](O)[C@H](O)CO.CNC[C@H](O)[C@@H](O)[C@H](O)[C@H](O)CO.O=C([O-])CN(CCN(CC(=O)[O-])CC(=O)O)CCN(CC(=O)[O-])CC(=O)O.[Gd+3]", "note": "[Gd(DTPA), gadopentetate dimeglumine]", "values": [
      {"measurement": "r1 9.4 T", "setting": "[1]; 9.4 T", "value": 2.5, "unit": "mM⁻¹ s⁻¹"},
      {"measurement": "r1 4.7 T", "setting": "[1]; buffer, pH 7.4, 37 °C, 4.7 T", "value": 3.1, "unit": "mM⁻¹ s⁻¹"},
      {"measurement": "r1 in HSA 4.7 T", "setting": "[1]; in HSA, 4.7 T", "value": 3.2, "unit": "mM⁻¹ s⁻¹"}
    ]}
  ]
}
